In assay [1] the test system is human adipocytes. Briefly: qRT-PCR in human adipocytes (hADSC) treated two days with naringenin and inhibitors. In kind it is cell-based. The following applies: 2d treatment. Here is the method:
Human white adipocytes were treated for 2d with naringenin in the presence of inhibitors of metabolic pathways to determine the mechanism of action for stimulating fat oxidation and thermogenic energy expenditure.
Naringenin increased UCP1 and CPT1β mRNA induction compared to control (p<0.001). PPARα and PPARγ inhibition reduced UCP1 and CPT1β mRNA expression (p<0.001). Each experiment was conducted with three biological replicates and four technical replicates.
The whole orange extract was dissolved in DMSO at 15 mM (based on 28% naringenin content) and added to cells at a dilution of 1:500 to achieve a final concentration of 30 μM. The inhibitors added to the naringenin-treated cells included: peroxisome proliferator-activated receptor alpha (PPARα) antagonist GW6471 and peroxisome proliferator-activated receptor gamma (PPARγ) antagonist GW9662 (Cayman Chemical, Ann Arbor, Mich.) at 10 μM concentration, protein kinase A (PKA) inhibitor H89 (Millipore Sigma, Burlington, Mass.) at 20 μM concentration, and protein kinase G (PKG) inhibitor […] (Biolog Life Science Institute, AXXORA, LLC, Farmingdale, N.Y.) at 50 μM concentration. GW6471 and GW9662 were dissolved in DMSO at 1000×, H89 was dissolved in PBS at 500×, and Rp-8-pCPT-cGMPS was dissolved in PBS at 100× prior to dilution in cell culture medium. Following a two-day treatment, the cells were harvested with Trizol reagent. RNeasy Mini Kit (Qiagen, Germantown, Md.) was used to isolate total RNA following manufacturer's protocol. The expression of UCP1, CPT1β, and GLUT4 was quantified with one-step reverse transcriptase PCR using the reverse PCR primer to prime cDNA synthesis as previously described.^6
A general note: In qPCR the cycle at which signal appears reflects the starting amount.

The test system of assay [2] is human adipocytes. As to the kind of experiment: UCP1 mRNA in human adipocytes, naringenin combined with other botanical compounds. It counts as cell-based. The note with it: 5 μM naringenin in combination. The procedure:
Human adipocytes were treated with 5 μM naringenin or with naringenin in combination with other botanical compounds to evaluate synergy in inducing UCP1 mRNA expression. A range of other botanical compounds such as […]

In assay [3] the test system is human adipocytes. Briefly: Acute agonist-stimulated lipolysis (glycerol release) in untreated and NRBC-treated adipocytes. In kind it is cell-based. The note with it: 4.5 hour agonist exposure. Here is the method: Acute agonist-stimulated glycerol release in untreated and NRBC-treated adipocytes. After 7d treatment with vehicle or NRBC, cells were exposed to receptor agonists dissolved in KRB with 1% BSA for 4.5 hours. Supernatants were removed for measurement of glycerol.
On the day of the acute lipolysis assay, cell cultures were rinsed with KRB to remove serum and exposed to the individual receptor agonists in KRB. Lipolysis was measured as glycerol released into the cell supernatant over 4.5 hour of agonist exposure. Non-hydrolyzable cAMP was also evaluated in each experiment as a positive control to measure the maximum capacity for PKA-stimulated lipolysis.

In assay [4] the test system is human adipocytes. As to the kind of experiment: mRNA expression (Taqman RT-PCR) in differentiated human adipocytes after 7 day treatment. It counts as cell-based. The note with it: for UCP1 and GLUT4 expression, carotenoid alone: 2 μM carotenoid; for UCP1 and GLUT4 expression, carotenoid alone / UCP1 and GLUT4 expression, carotenoid in combination with naringenin extract: seven days; for UCP1 and GLUT4 expression, carotenoid in combination with naringenin extract: 8 μM naringenin extract + 2 μM carotenoid; for gene expression, carotenoid in combination with NR: compared with BC + NR.

For assay [5] the following is noted: 4 mg/day, six months, obese children; cited from earlier work.
In assay [6] the test system is mice. The following applies: 150 mg/kg/day dietary; cited from earlier work.
In assay [7] the test system is mice. The note with it: 100 mg/kg injected daily; cited from earlier work.

As for `O=S(=O)(NCCNC/C=C/c1ccc(Br)cc1)c1cccc2cnccc12` [H89, reference compound], the “Induction of UCP1 and CPT-1b by naringenin in the presence of the inhibitor” value (shortened to “Induction of UCP1 and CPT-1b … of the inhibitor”) with human adipocytes [1] is reported as “partially reduced”. For `CC12CCC(CC1)C(C)(C)O2` [Ecalyptol], the “synergy with naringenin in increasing UCP1 mRNA levels” value in the assay with human adipocytes [2] is on record as “did not synergize”. `CC[C@H](C)[C@@H]1NC(=O)[C@H](CCCNC(=N)N)NC(=O)[C@H](CC(=O)O)NC(=O)[C@H](CCSC)NC(=O)[C@H](CCCNC(=N)N)NC(=O)CNC(=O)CNC(=O)[C@H](Cc2ccccc2)NC(=O)[C@@H](NC(=O)[C@H](CO)NC(=O)[C@H](CO)NC(=O)[C@H](CCCNC(=N)N)NC(=O)[C@H](CCCNC(=N)N)NC(=O)[C@H](CC(C)C)NC(=O)[C@@H](N)CO)CSSC[C@@H](C(=O)N[C@@H](CC(N)=O)C(=O)N[C@@H](CO)C(=O)N[C@@H](Cc2ccccc2)C(=O)N[C@@H](CCCNC(=N)N)C(=O)N[C@@H](Cc2ccc(O)cc2)C(=O)O)NC(=O)CNC(=O)[C@H](CC(C)C)NC(=O)CNC(=O)[C@H](CO)NC(=O)[C@H](CCC(N)=O)NC(=O)[C@H](C)NC(=O)CNC1=O` [ANP]: in the assay with human adipocytes [3], the “lipolysis stimulated by the agonist (glycerol release)” value (“lipolysis stimulated by the agonist” for short) is listed as “highest levels of lipolysis”. Consider `O=C(Nc1ccccc1)c1cc([N+](=O)[O-])ccc1Cl` [GW9661, reference compound], for which, in the assay on human adipocytes [1], the “Induction of UCP1 and CPT-1b … of the inhibitor” value is listed as “abolished”. As for `CC(CCc1ccc(O)cc1)NCCc1ccc(O)c(O)c1` (stereo not shown) [dobutamine], the “lipolysis stimulated by the agonist” value in the assay on human adipocytes [3] is given as “comparable to isoproterenol”. For the molecule `CC1=C[C@H](O)CC(C)(C)[C@H]1/C=C/C(C)=C/C=C/C(C)=C/C=C/C=C(C)/C=C/C=C(C)/C=C/C1=C(C)C[C@@H](O)CC1(C)C` [lutein, Lutein], in the assay with human adipocytes [4], the “UCP1 and GLUT4 expression, carotenoid alone” value is “no effect”; the “UCP1 and GLUT4 expression, carotenoid in combination with naringenin extract” value is listed as “act synergistically”; the “gene expression, carotenoid in combination with NR” value is reported as “synergistic effect”. As for `Nc1ncnc2c1ncn2[C@@H]1O[C@@H]2COP(=O)(O)O[C@H]2[C@H]1O` [Cyclic AMP], in the assay on human adipocytes [3], the “lipolysis stimulated by the agonist” value is recorded as “greater lipolysis activity than any individual receptor ligand”. With `CC1=C(/C=C/C(C)=C/C=C/C(C)=C/C=C/C=C(C)/C=C/C=C(C)/C=C/C2=C(C)CCCC2(C)C)C(C)(C)CCC1` [beta carotene, β-Carotene], in the assay on human adipocytes [4], the “UCP1 and GLUT4 expression, carotenoid alone” value is reported as “no effect”. The “RNA expression of uncoupling protein-1, adipose tissue glyceride lipase and adiponectin” value with human adipocytes [4] (beta carotene at 1 micromolar) is “increase RNA expression”. Besides, in assay [5], the “BMI z-score, subcutaneous and visceral adipose tissue, waist circumference” value is reported as “reduction in BMI z-score, subcutaneous adipose tissue, visceral adipose tissue, waist circumference”; the insulin sensitivity result was “improved insulin sensitivity”. Moreover, in the assay with mice [6], the “adiposity, food intake, bodyweight” value is on record as “reduced adiposity without altering food intake or bodyweight”. On to `CCC(=O)NC[C@H](Cc1ccc(OCCc2nc(-c3ccccc3)oc2C)cc1)N/C(C)=C\C(=O)c1ccc(C(F)(F)F)cc1` [GW6471, reference compound], for which the “Induction of UCP1 and CPT-1b … of the inhibitor” value with human adipocytes [1] was “abolished”. The same measure, in the same setting: next, `Nc1nc2c(nc(Sc3ccc(Cl)cc3)n2[C@@H]2O[C@@H]3CO[P@@](=O)(S)O[C@H]3[C@H]2O)c(=O)[nH]1` [Biolog C013, reference compound]: “unaffected”.

For the molecule `CC1=C(/C=C/C(C)=C/C=C/C(C)=C/C(=O)O)C(C)(C)CCC1` [atRA, All-trans retinoic acid], the “body weight and adiposity” value with mice [7] was “reduction in body weight and adiposity”. Take “PTH: parathyroid hormone (1-34) (SVSEIQLMHNLGKHLNSMERVEWLRKKLQDVHNF; Parathyroid hormone; UniProt P01270 32-65, looked up, fragment)”: the “lipolysis stimulated by the agonist” value in the assay with human adipocytes [3] is recorded as “highest levels of lipolysis”. Regarding `CC(C)=CCC/C(C)=C/C=C/C(C)=C/C=C/C(C)=C/C=C/C=C(C)/C=C/C=C(C)/C=C/C=C(\C)CCC=C(C)C` [lycopene, Lycopene], in the assay with human adipocytes [4], the “UCP1 and GLUT4 expression, carotenoid alone” value is given as “no effect”; the “UCP1 and GLUT4 expression, carotenoid in combination with naringenin extract” value was “act synergistically”; the “gene expression, carotenoid in combination with NR” value is “synergistic effect”.

For the molecule `CCCCCCCC/C=C\CCCCCCCC(=O)NCCO` [OEA, oleoylethanolamide], in the assay on human adipocytes [2], the “synergy with naringenin in increasing UCP1 mRNA levels” value is “did not synergize”.

The record behind these values is patent US20210260022A1, “SYNERGY FOR INCREASING ENERGY EXPENDITURE AND INSULIN SENSITIVITY” (The Board of Supervisors of Louisiana State University and …, priority 2018, published 2021).
